This is an account of results in patent publication EP1724268A1, “COMPOUND HAVING TGF-BETA INHIBITORY ACTIVITY AND PHARMACEUTICAL COMPOSITION CONTAINING SAME” (KIRIN BEER KABUSHIKI KAISHA, priority 2004, dated 2005).

Broadly, the inhibition is how much of the control response was suppressed.

The test system of the test is TGFβ signal. Briefly: TGFβ signal inhibitory activity, (SBE)4-Luc reporter in A549 cells (Test Examples 1A and 1B). The format is cell-based, human. To be noted: Homo sapiens, A549, read-out: TGFβ inhibition rate, %. In short, it runs like this:
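Stable A549 line carrying (SBE)4-Luc Smad3-binding reporter treated with compound plus TGFβ-1 (2 ng/ml) for 4 hr; luciferase read by chemiluminescence. Percent inhibition relative to TGFβ-only and untreated cells, tested at 3 µM and 10 µM, some also at 1 µM.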

Where [1] appears, read: test compound 3 µM, Reference Examples, Table 1B.
Setting [2] is: test compound 10 µM, Reference Examples, Table 1B.
[3] abbreviates: 3 µM, compounds of Reference Examples (Test Example 1B).
Setting [4] is: 10 µM, compounds of Reference Examples (Test Example 1B).
Setting [5] is: test compound 3 µM, TGFβ-1 2 ng/ml, 4 hr, Table 1A.
Where [6] appears, read: test compound 10 µM, TGFβ-1 2 ng/ml, 4 hr, Table 1A.

Like-named read-outs stand apart in the source and are kept apart here.

For `CCC(=O)c1ccc(OCc2ccccc2)cc1Oc1ccnc2cc(OC)c(OC)cc12` [Compound r45], the inhibition at 3 µM under setting [1] turned out to be 0%. The inhibition at 10 µM under setting [2] amounted to 67%.
Consider `COc1cc2nccc(Oc3c(C)cc4ncccc4c3Cl)c2cc1OC` [r302], for which, under setting [3], the inhibition at 3 µM is 30%. The inhibition at 10 µM under setting [4] stood at 90%.
Consider `COc1cc2nccc(Oc3ccc(C)nc3-c3c(Cl)cccc3Cl)c2cc1OC` [Compound r253], for which, under setting [3], the inhibition at 3 µM amounted to 68%. Further, the inhibition at 10 µM under setting [4] turned out to be 97%.
With `Cc1ccc(Oc2ccnc3ccc(OCCCN4CCC(Cc5ccccc5)CC4)cc23)c(-c2ncccn2)n1` [Compound 220, 6-[3-(4-Benzyl-piperidin-1-yl)-propoxy]-4-(6-methyl-2-pyrimidin-2-yl-pyridin-3-yloxy)-quinoline], the inhibition at 3 µM under setting [5] is 91%. Besides, the inhibition at 10 µM under setting [6] is 100%.
Regarding `COc1cc2nccc(Oc3ccc(C)nc3-c3ccc(Oc4ccccc4)cc3)c2cc1OC` [Compound r250], the inhibition at 3 µM under setting [3] came to 34%. Also, the inhibition at 10 µM under setting [4] was 81%.
Turning to `Cc1cc(Oc2ccnc3ccc(-c4ccsc4)cc23)c(-c2ccccn2)nc1C` [Compound 163, 5,6-Dimethyl-3-(6-thiophen-3-yl-quinolin-4-yloxy)-[2,2']bipyridine], the inhibition at 3 µM under setting [5] amounted to 92%. In addition, the inhibition at 10 µM under setting [6] was 100%.
In the case of `COc1cc2c(Oc3ccc(C)cc3C(=O)c3ccccc3)ccnc2cc1OCC(O)CN1CCC(N2CCCC2)CC1` (stereo not drawn) [r155], the inhibition at 3 µM under setting [1] was 100%. Moreover, under setting [2], the inhibition at 10 µM was 100%.
Consider `COc1cc2nccc(Oc3ccc(C)nc3-c3ccncc3)c2cc1OC` [Compound r263], for which the inhibition at 3 µM under setting [3] was 82%. In addition, the inhibition at 10 µM under setting [4] came to 99%.
In the case of `COc1cc2ncnc(Oc3cc(C)c(C)nc3-c3cccc(C)n3)c2cc1OC` [Compound 41, 6,7-Dimethoxy-4-(5,6,6'-trimethyl-[2,2']bipyridin-3-yloxy)-quinazoline], under setting [5], the inhibition at 3 µM stood at 66%. The inhibition at 10 µM under setting [6] was determined as 98%.
The corresponding values for `Cc1cc(Oc2ccnc3ccc(Cl)c(Cl)c23)c(-c2ccccn2)nc1C` [Compound 130, 3-(5,6-Dichloro-quinolin-4-yloxy)-5,6-dimethyl-[2,2']bipyridine] are 100% and 100%.
In the case of `COc1cc2nccc(Oc3cc(C)c(C)cc3-c3cccnc3)c2cc1OC` [r170], the inhibition at 3 µM under setting [3] is 76%. Under setting [4], the inhibition at 10 µM was found to be 100%.
The corresponding values for `COc1cc2c(Oc3cc4ccccc4nc3C)ccnc2cc1OCCN1CCCC(C(N)=O)C1` (stereo not drawn) [Compound r360] are 100% and 100%.
For `Cc1cc(Oc2ccnc3cc(-c4ccncc4)ccc23)c(-c2ccccn2)nc1C` [Compound 19, 5,6-Dimethyl-3-(7-pyridin-4-yl-quinolin-4-yloxy)-[2,2']bipyridine], the inhibition at 3 µM under setting [5] was 100%. In addition, the inhibition at 10 µM under setting [6] was found to be 100%.
Turning to `CCCCOC(=O)c1ccccc1Oc1ccnc2cc(OC)c(OC)cc12` [Compound r98], under setting [1], the inhibition at 3 µM turned out to be 4%. The inhibition at 10 µM under setting [2] worked out at 93%.
In the case of `COc1cc2nccc(Oc3cc4cccnc4nc3-c3ccc(F)cc3)c2cc1OC` [Compound 83, 3-(6,7-Dimethoxy-quinolin-4-yloxy)-2-(4-fluoro-phenyl)-[1,8]naphthyridine], the inhibition at 3 µM under setting [5] was 92%. Moreover, the inhibition at 10 µM under setting [6] turned out to be 99%.
Take `COc1cc2nccc(Oc3ccc(C)cc3C(=O)c3ccno3)c2cc1OC` [Compound r61]: under setting [1], the inhibition at 3 µM amounted to 61%. Under setting [2], the inhibition at 10 µM is 98%.
Regarding `COc1cc2nccc(Oc3cccnc3C)c2cc1OC` [r202], the inhibition at 3 µM under setting [3] amounted to 20%. Also, the inhibition at 10 µM under setting [4] was 54%.
For `COc1cc2nccc(Oc3cc(C)c(C)nc3-c3ccccn3)c2cc1Br` [Compound 133, 3-(6-Bromo-7-methoxy-quinolin-4-yloxy)-5,6-dimethyl-[2,2']bip yridine], the inhibition at 3 µM under setting [5] was 99%. Under setting [6], the inhibition at 10 µM is 100%.
